What all share (experiment): Kinetic characterization of purified Ald with varied substrate CoA (Example 4, Table 5)
Data set [1] has as its system Acidaminococcus massiliensis aldehyde dehydrogenase (Ald), SEQ ID NO: 28. It counts as biochemical. The note with it: for Catalytic efficiency kcat/KM / Km / Turnover number kcat: purified protein, substrate CoA varied, conditions similar to Example 1 (0.1 M Tris-HCl, pH 7.5). Here is the method: (§1) The lysates (5 μl) were added to an assay mixture to result in a total volume of 20 μL with final concentrations of 0.1 M Tris-HCl, pH 7.5, 2.5 mM adipyl-CoA (AdCoA), and either 0.5 mM NADH or 0.5 mM NADPH. This assay was used to screen all of the Ald enzyme candidates. Some Ald candidates were also assayed using succinyl-CoA (SuCoA) or acetyl-CoA (AcCoA) as substrates. AdCoA, SuCoA, and AcCoA were obtained from commercial suppliers. Activity was monitored by a linear decrease in fluorescence of NADH or NADPH in the presence of the CoA substrate.
(§2) Kinetic characterization was done under similar conditions as the lysate screening described in Example 1; however, in this case purified protein was used instead of cell lysates. Each of the Acidaminococcus massiliensis Ald (SEQ ID NO:28), the Collinsella sp. GD7 Ald (SEQ ID NO:60), and the Romboutsia lituseburensis DSM Ald (SEQ ID NO:107) was purified using affinity chromatography. In these assays, the concentration each of the substrate CoAs was varied to determine the turnover number (kcat), the affinity of the enzyme for the substrate (KM) of the enzyme, the catalytic efficiency (kcat/KM) of each selected Ald enzyme for each substrate were determined and shown in the Table 5 below.
(§3) Catalytic efficiency (kcat/KM) of the various aldehyde dehydrogenases using various substrates were plotted in a bar graph for comparison (FIG. 3A).

Data set [2] has as its system Collinsella sp. GD7 aldehyde dehydrogenase (Ald), SEQ ID NO: 60. It counts as biochemical. The conditions noted are these: for Catalytic efficiency kcat/KM / Km / Turnover number kcat: purified protein, substrate CoA varied, conditions similar to Example 1 (0.1 M Tris-HCl, pH 7.5). Here is the method: as §1, §2, §3
For data set [3], the target named is Romboutsia lituseburensis DSM aldehyde dehydrogenase (Ald), SEQ ID NO: 107 (Romboutsia lituseburensis, UniProt A0A1G9MGA8). It counts as biochemical. The note with it: ratio of kcat/KM. As for the experimental part: as §1, §2, §3
For data set [4], the system named is CC(=O)SCCNC(=O)CCNC(=O)[C@H](O)C(C)(C)COP(=O)(O)OP(=O)(O)OC[C@H]1O[C@@H](n2cnc3c(N)ncnc32)[C@H](O)[C@@H]1OP(=O)(O)O. It counts as biochemical, Romboutsia lituseburensis DSM. The note with it: other: purified protein, conditions similar to Example 1 (0.1 M Tris-HCl, pH 7.5). As for the experimental part: as §1, §2, §3
Data set [5] relates to CC(C)(COP(=O)(O)OP(=O)(O)OC[C@H]1O[C@@H](n2cnc3c(N)ncnc32)[C@H](O)[C@@H]1OP(=O)(O)O)[C@@H](O)C(=O)NCCC(=O)NCCSC(=O)CCC(=O)O. It counts as biochemical, Romboutsia lituseburensis DSM. The conditions noted are these: other: purified protein, conditions similar to Example 1 (0.1 M Tris-HCl, pH 7.5). As for the experimental part: as §1, §2, §3
Data set [6] relates to CC(C)(COP(=O)(O)OP(=O)(O)OC[C@H]1O[C@@H](n2cnc3c(N)ncnc32)[C@H](O)[C@@H]1OP(=O)(O)O)[C@@H](O)C(=O)NCCC(=O)NCCSC(=O)CCCCC(=O)O. It counts as biochemical, Romboutsia lituseburensis DSM. The conditions noted are these: other: purified protein, conditions similar to Example 1 (0.1 M Tris-HCl, pH 7.5). Here is the method:
as §1, §2, §3

Turning to `CC(C)(COP(=O)(O)OP(=O)(O)OC[C@H]1O[C@@H](n2cnc3c(N)ncnc32)[C@H](O)[C@@H]1OP(=O)(O)O)[C@@H](O)C(=O)NCCC(=O)NCCSC(=O)CCCCC(=O)O` [Adipyl-CoA], the “Catalytic efficiency kcat/KM” value in data set [1] is 3000 M⁻¹ s⁻¹; in data set [2], 150 M⁻¹ s⁻¹. The Km amounted to 810 µM in data set [1] and 100 µM in data set [2]. Moreover, the Turnover number kcat came to 2.5 s⁻¹ in data set [1] and 0.015 s⁻¹ in data set [2]. Moreover, the “Catalytic efficiency (kcat/KM) for adipyl-CoA over succinyl-CoA” value is given as “higher catalytic efficiency for adipyl-CoA over succinyl-CoA” in data set [1] (ratio of kcat/KM, FIG. 3B); “higher catalytic efficiency for adipyl-CoA over succinyl-CoA” in data set [2] (ratio of kcat/KM, FIG. 3B); “higher catalytic efficiency for adipyl-CoA over succinyl-CoA” in data set [3] (FIG. 3B). For the same molecule, the “Catalytic efficiency (kcat/KM) for adipyl-CoA over acetyl-CoA” value in data set [1] (ratio of kcat/KM, FIG. 3C) is “higher catalytic efficiency for adipyl-CoA over acetyl-CoA”; in data set [2] (ratio of kcat/KM, FIG. 3C), “higher catalytic efficiency for adipyl-CoA over acetyl-CoA”; in data set [3] (FIG. 3C) it was “higher catalytic efficiency for adipyl-CoA over acetyl-CoA”.

`CC(=O)SCCNC(=O)CCNC(=O)[C@H](O)C(C)(C)COP(=O)(O)OP(=O)(O)OC[C@H]1O[C@@H](n2cnc3c(N)ncnc32)[C@H](O)[C@@H]1OP(=O)(O)O` [Acetyl-CoA]: in data set [1], the “Catalytic efficiency kcat/KM” value is 100 M⁻¹ s⁻¹, the Km is 380 µM and the Turnover number kcat worked out at 0.040 s⁻¹. Moreover, in data set [2], the “Catalytic efficiency kcat/KM” value was determined as 1.6 M⁻¹ s⁻¹ and the Km is > 2000 µM.

Turning to “Romboutsia lituseburensis DSM aldehyde dehydrogenase (Ald), SEQ ID NO: 107 (Romboutsia lituseburensis DSM 797)”, in data set [4], the Km came to 310 µM, the kcat came to 0.013 s⁻¹ and the kcat/Km was 40 M⁻¹ s⁻¹. In data set [5], the Km was 220 µM, the kcat was found to be 0.056 s⁻¹ and the kcat/Km is 250 M⁻¹ s⁻¹. Further, in data set [6], the Km worked out at 240 µM, the kcat amounted to 1.0 s⁻¹ and the kcat/Km turned out to be 4000 M⁻¹ s⁻¹.

For `CC(C)(COP(=O)(O)OP(=O)(O)OC[C@H]1O[C@@H](n2cnc3c(N)ncnc32)[C@H](O)[C@@H]1OP(=O)(O)O)[C@@H](O)C(=O)NCCC(=O)NCCSC(=O)CCC(=O)O` [Succinyl-CoA], in data set [1], the “Catalytic efficiency kcat/KM” value is 290 M⁻¹ s⁻¹, the Km was found to be 790 µM and the Turnover number kcat turned out to be 0.23 s⁻¹. In data set [2], the “Catalytic efficiency kcat/KM” value amounted to 26 M⁻¹ s⁻¹, the Km stood at 400 µM and the Turnover number kcat came out at 0.010 s⁻¹.

Values taken from patent US12577594B2, “Engineered microorganisms and methods for improved aldehyde dehydrogenase activity” (Genomatica, Inc., priority 2019, dated 2026).
